According to ChEMBL document CHEMBL2346648, “A series of thiazole derivatives bearing thiazolidin-4-one as non-competitive ADAMTS-5 (aggrecanase-2) inhibitors” (Bioorg Med Chem Lett, 2013):
pIC50: −log10 of the molar value.

Columns and labels:
[1] = biological target: T1, A disintegrin and metalloproteinase with thrombospondin motifs 5 (Homo sapiens, UniProt Q9UNA0); assay: Inhibition of human His-tagged ADAMTS-5 using QF-peptide as substrate by FRET method
T1 sequence (Q9UNA0 whole entry): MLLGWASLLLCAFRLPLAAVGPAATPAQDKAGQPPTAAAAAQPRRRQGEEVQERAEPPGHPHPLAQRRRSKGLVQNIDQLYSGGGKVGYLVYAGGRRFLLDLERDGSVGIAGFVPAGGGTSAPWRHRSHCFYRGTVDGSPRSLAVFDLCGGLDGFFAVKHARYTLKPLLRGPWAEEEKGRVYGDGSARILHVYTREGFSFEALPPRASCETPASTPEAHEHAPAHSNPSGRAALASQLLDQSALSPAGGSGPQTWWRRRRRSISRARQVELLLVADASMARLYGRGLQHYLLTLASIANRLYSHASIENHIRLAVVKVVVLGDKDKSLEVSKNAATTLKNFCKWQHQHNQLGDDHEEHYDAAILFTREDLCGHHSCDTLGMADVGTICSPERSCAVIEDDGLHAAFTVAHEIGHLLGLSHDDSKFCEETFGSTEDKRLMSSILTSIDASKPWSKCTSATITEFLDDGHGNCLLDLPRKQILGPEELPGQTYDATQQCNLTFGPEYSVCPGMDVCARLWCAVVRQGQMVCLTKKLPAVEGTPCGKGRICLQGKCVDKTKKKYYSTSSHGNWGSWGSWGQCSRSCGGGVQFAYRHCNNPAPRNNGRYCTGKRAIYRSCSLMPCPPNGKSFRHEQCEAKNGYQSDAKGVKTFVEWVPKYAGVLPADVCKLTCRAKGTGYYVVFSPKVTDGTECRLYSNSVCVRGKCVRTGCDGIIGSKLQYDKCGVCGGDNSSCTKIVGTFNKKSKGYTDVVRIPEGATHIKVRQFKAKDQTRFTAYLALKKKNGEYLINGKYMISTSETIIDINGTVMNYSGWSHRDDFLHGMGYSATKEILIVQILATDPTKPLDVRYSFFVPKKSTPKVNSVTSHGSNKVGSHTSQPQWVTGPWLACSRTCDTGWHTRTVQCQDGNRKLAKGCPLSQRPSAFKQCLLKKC

[2] = Apparent permeability from apical to basolateral side of MDCK cells by transwell assay; format: ADME, cell-based, Canis lupus familiaris; details: dog
[3] = biological target: Stromelysin-1 (Homo sapiens, UniProt P08254); assay: Inhibition of MMP3 (unknown origin) by FRET method
Sequence of Stromelysin-1 (P08254 whole entry): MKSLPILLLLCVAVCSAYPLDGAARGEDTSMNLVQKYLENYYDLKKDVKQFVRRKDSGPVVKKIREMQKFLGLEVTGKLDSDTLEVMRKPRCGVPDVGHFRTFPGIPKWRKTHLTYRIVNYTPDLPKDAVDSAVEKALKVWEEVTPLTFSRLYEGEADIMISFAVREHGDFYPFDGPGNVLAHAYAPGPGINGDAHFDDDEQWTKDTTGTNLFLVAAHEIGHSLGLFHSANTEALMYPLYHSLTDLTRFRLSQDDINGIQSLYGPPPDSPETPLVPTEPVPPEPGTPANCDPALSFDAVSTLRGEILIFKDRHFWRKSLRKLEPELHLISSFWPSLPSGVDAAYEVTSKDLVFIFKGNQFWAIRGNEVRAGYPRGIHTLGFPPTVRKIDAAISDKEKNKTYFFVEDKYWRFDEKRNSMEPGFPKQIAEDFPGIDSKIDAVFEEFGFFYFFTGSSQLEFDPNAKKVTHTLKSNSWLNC

In the case of `O=C(O)CCc1sc(/C=C2\NC(=O)CS2)nc1-c1ccccn1`, the pIC50 [1] was 6.64, the Papp A→B [2] was 5.55 ×10⁻⁶ cm/s and the pIC50 [3] was < 4.52.
